# In PubChem BioAssay (NCI):
#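 Tested at 5 concentrations; 48 h exposure; 96-well plates; endpoints linearly interpolated, else capped at highest concentration. TGI denotes the concentration required for complete inhibition of growth.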
# What was measured:
# Assay in all cases: NCI-60 cell line screen, 48 h
# [1] = system: 786-0 renal
# [2] = system: A498 renal
# [3] = system: A549 NSCLC
# [4] = system: ACHN renal
# [5] = system: BT-549 breast
# [6] = system: CAKI-1 renal
# [7] = system: CCRF-CEM leukemia
# [8] = system: COLO 205 colon
# [9] = system: DU-145 prostate
# [10] = system: EKVX NSCLC
# [11] = system: HCC-2998 colon
# [12] = system: HCT-116 colon
# [13] = system: HCT-15 colon
# [14] = system: HL-60(TB) leukemia
# [15] = system: HOP-62 NSCLC
# [16] = system: HOP-92 NSCLC
# [17] = system: HS 578T breast
# [18] = system: HT29 colon
# [19] = system: IGROV1 ovarian
# [20] = system: K-562 leukemia
# [21] = system: KM12 colon
# [22] = system: M14 melanoma
# [23] = system: MALME-3M melanoma
# [24] = system: MCF7 breast
# [25] = system: MDA-MB-231 breast
# [26] = system: MDA-MB-435
# [27] = system: MDA-N
# [28] = system: MOLT-4 leukemia
# [29] = system: NCI-H226 lung
# [30] = system: NCI-H23 lung
# [31] = system: NCI-H460 lung
# [32] = system: NCI-H522 lung
# [33] = system: NCI/ADR-RES ovarian
# [34] = system: OVCAR-3 ovarian
# [35] = system: OVCAR-4 ovarian
# [36] = system: OVCAR-5 ovarian
# [37] = system: OVCAR-8 ovarian
# [38] = system: PC-3 prostate
# [39] = system: RPMI-8226 leukemia
# [40] = system: RXF 393 renal
# [41] = system: SF-268 CNS
# [42] = system: SF-295 CNS
# [43] = system: SF-539 CNS
# [44] = system: SK-MEL-2 melanoma
# [45] = system: SK-MEL-28 melanoma
# [46] = system: SK-MEL-5 melanoma
# [47] = system: SK-OV-3 ovarian
# [48] = system: SN12C renal
# [49] = system: SNB-19 CNS
# [50] = system: T-47D breast
# [51] = system: TK-10 renal
# [52] = system: U251 CNS
# [53] = system: UACC-257 melanoma
# [54] = system: UACC-62 melanoma
# [55] = system: UO-31 renal
# [56] = system: LOX IMVI melanoma
# [57] = system: SR leukemia
# [58] = system: SW-620 colon
# [59] = system: SNB-75 CNS
structure (smiles),measurement,setting,value
Cc1cc(S(=O)(=O)/N=C(/C(=C=[N-])C#N)[n+]2ccc(N(C)C)cc2)c(SCC(=O)O)cc1Cl,TGI,[1],> 100 µM
same,TGI,[2],> 100 µM
same,TGI,[3],> 100 µM
same,TGI,[4],> 100 µM
same,TGI,[5],> 100 µM
same,TGI,[6],> 100 µM
same,TGI,[7],> 100 µM
same,TGI,[8],> 100 µM
same,TGI,[9],> 100 µM
same,TGI,[10],> 100 µM
same,TGI,[11],> 100 µM
same,TGI,[12],> 100 µM
same,TGI,[13],> 100 µM
same,TGI,[14],> 100 µM
same,TGI,[15],> 100 µM
same,TGI,[16],70.4 µM
same,TGI,[17],> 100 µM
same,TGI,[18],> 100 µM
same,TGI,[19],> 100 µM
same,TGI,[20],> 100 µM
same,TGI,[21],> 100 µM
same,TGI,[22],> 100 µM
same,TGI,[23],64.5 µM
same,TGI,[24],> 100 µM
same,TGI,[25],> 100 µM
same,TGI,[26],> 100 µM
same,TGI,[27],> 100 µM
same,TGI,[28],> 100 µM
same,TGI,[29],> 100 µM
same,TGI,[30],> 100 µM
same,TGI,[31],> 100 µM
same,TGI,[32],> 100 µM
same,TGI,[33],> 100 µM
same,TGI,[34],> 100 µM
same,TGI,[35],> 100 µM
same,TGI,[36],> 100 µM
same,TGI,[37],> 100 µM
same,TGI,[38],> 100 µM
same,TGI,[39],> 100 µM
same,TGI,[40],> 100 µM
same,TGI,[41],> 100 µM
same,TGI,[42],> 100 µM
same,TGI,[43],> 100 µM
same,TGI,[44],> 100 µM
same,TGI,[45],> 100 µM
same,TGI,[46],> 100 µM
same,TGI,[47],> 100 µM
same,TGI,[48],> 100 µM
same,TGI,[49],> 100 µM
same,TGI,[50],> 100 µM
same,TGI,[51],> 100 µM
same,TGI,[52],> 100 µM
same,TGI,[53],> 100 µM
same,TGI,[54],> 100 µM
same,TGI,[55],> 100 µM
CO[C@H]1SC[C@H](OC(C)=O)[C@H](OC(C)=O)[C@H]1OC(C)=O,TGI,[1],> 100 µM
same,TGI,[3],> 100 µM
same,TGI,[4],> 100 µM
same,TGI,[5],> 100 µM
same,TGI,[6],> 100 µM
same,TGI,[7],> 100 µM
same,TGI,[8],> 100 µM
same,TGI,[9],> 100 µM
same,TGI,[10],> 100 µM
same,TGI,[11],> 100 µM
same,TGI,[12],> 100 µM
same,TGI,[13],> 100 µM
same,TGI,[14],> 100 µM
same,TGI,[15],> 100 µM
same,TGI,[17],> 100 µM
same,TGI,[18],> 100 µM
same,TGI,[19],> 100 µM
same,TGI,[20],> 100 µM
same,TGI,[21],> 100 µM
same,TGI,[56],> 100 µM
same,TGI,[22],> 100 µM
same,TGI,[23],> 100 µM
same,TGI,[24],> 100 µM
same,TGI,[25],> 100 µM
same,TGI,[26],> 100 µM
same,TGI,[27],> 100 µM
same,TGI,[28],> 100 µM
same,TGI,[29],> 100 µM
same,TGI,[30],> 100 µM
same,TGI,[31],> 100 µM
same,TGI,[32],> 100 µM
same,TGI,[33],> 100 µM
same,TGI,[34],> 100 µM
same,TGI,[35],> 100 µM
same,TGI,[37],> 100 µM
same,TGI,[39],> 100 µM
same,TGI,[41],> 100 µM
same,TGI,[42],> 100 µM
same,TGI,[43],> 100 µM
same,TGI,[44],> 100 µM
same,TGI,[45],> 100 µM
same,TGI,[46],> 100 µM
same,TGI,[48],> 100 µM
same,TGI,[49],> 100 µM
same,TGI,[57],> 100 µM
same,TGI,[58],> 100 µM
same,TGI,[50],> 100 µM
same,TGI,[51],> 100 µM
same,TGI,[52],> 100 µM
same,TGI,[53],> 100 µM
same,TGI,[54],> 100 µM
same,TGI,[55],> 100 µM
O=C1N=C2SC(=S)NC(=S)N2NC12c1ccccc1-c1ccccc12,TGI,[1],> 10 µM
same,TGI,[2],6.58 µM
same,TGI,[3],> 10 µM
same,TGI,[5],> 10 µM
same,TGI,[6],> 10 µM
same,TGI,[7],> 10 µM
same,TGI,[8],> 10 µM
same,TGI,[9],> 10 µM
same,TGI,[10],> 10 µM
same,TGI,[11],> 10 µM
same,TGI,[13],> 10 µM
same,TGI,[14],> 10 µM
same,TGI,[15],> 10 µM
same,TGI,[16],> 10 µM
same,TGI,[17],> 10 µM
same,TGI,[18],> 10 µM
same,TGI,[19],> 10 µM
same,TGI,[20],> 10 µM
same,TGI,[21],> 10 µM
same,TGI,[56],> 10 µM
same,TGI,[22],> 10 µM
same,TGI,[23],> 10 µM
same,TGI,[24],> 10 µM
same,TGI,[25],> 10 µM
same,TGI,[27],> 10 µM
same,TGI,[28],> 10 µM
same,TGI,[30],> 10 µM
same,TGI,[31],> 10 µM
same,TGI,[33],> 10 µM
same,TGI,[35],> 10 µM
same,TGI,[37],> 10 µM
same,TGI,[39],> 10 µM
same,TGI,[41],> 10 µM
same,TGI,[43],> 10 µM
same,TGI,[46],> 10 µM
same,TGI,[47],> 10 µM
same,TGI,[48],> 10 µM
same,TGI,[59],> 10 µM
same,TGI,[57],> 10 µM
same,TGI,[58],> 10 µM
same,TGI,[50],> 10 µM
same,TGI,[51],> 10 µM
same,TGI,[52],> 10 µM
same,TGI,[53],> 10 µM
same,TGI,[54],> 10 µM
same,TGI,[55],> 10 µM
CC1C(=O)OCC2=CCN3CCC(OC(=O)C(C)C1(C)O)C23 (stereo not drawn),TGI,[1],> 100 µM
same,TGI,[2],> 100 µM
same,TGI,[3],> 100 µM
same,TGI,[4],> 100 µM
same,TGI,[5],> 100 µM
same,TGI,[6],> 100 µM
same,TGI,[7],> 100 µM
same,TGI,[8],> 100 µM
same,TGI,[9],> 100 µM
same,TGI,[10],> 100 µM
same,TGI,[11],> 100 µM
same,TGI,[12],> 100 µM
same,TGI,[13],> 100 µM
same,TGI,[14],> 100 µM
same,TGI,[16],> 100 µM
same,TGI,[17],> 100 µM
same,TGI,[18],> 100 µM
same,TGI,[19],> 100 µM
same,TGI,[20],> 100 µM
same,TGI,[21],> 100 µM
same,TGI,[56],> 100 µM
same,TGI,[22],> 100 µM
same,TGI,[23],> 100 µM
same,TGI,[25],> 100 µM
same,TGI,[26],> 100 µM
same,TGI,[27],> 100 µM
same,TGI,[28],> 100 µM
same,TGI,[29],> 100 µM
same,TGI,[30],> 100 µM
same,TGI,[31],> 100 µM
same,TGI,[32],> 100 µM
same,TGI,[33],> 100 µM
same,TGI,[34],> 100 µM
same,TGI,[35],> 100 µM
same,TGI,[36],> 100 µM
same,TGI,[37],> 100 µM
same,TGI,[38],> 100 µM
same,TGI,[39],> 100 µM
same,TGI,[41],> 100 µM
same,TGI,[42],> 100 µM
same,TGI,[43],> 100 µM
same,TGI,[44],> 100 µM
same,TGI,[45],> 100 µM
same,TGI,[46],> 100 µM
same,TGI,[47],> 100 µM
same,TGI,[48],> 100 µM
same,TGI,[49],> 100 µM
same,TGI,[59],> 100 µM
same,TGI,[58],> 100 µM
same,TGI,[50],> 100 µM
same,TGI,[51],> 100 µM
same,TGI,[52],> 100 µM
same,TGI,[53],> 100 µM
same,TGI,[54],> 100 µM
same,TGI,[55],> 100 µM
